Assay results reported in ChEMBL document CHEMBL1145624, “The isolation, structure determination and cytotoxicity of the new fungal metabolite, trichodermamide C” (Bioorg Med Chem Lett, 2008).
Converted amounts (≈) assume the structure as drawn.

What was measured:
[1] = test system: A549; experiment: Cytotoxicity against human A549 cells after 24 hrs; assay type: functional, cell-based; conditions: A549, 24 h
[2] = test system: HCT-116; experiment: Cytotoxicity against human HCT116 cells after 24 hrs; assay type: functional, cell-based; conditions: HCT-116, 24 h

For `COc1ccc2cc(N(C)C(=O)C3=NO[C@H]4[C@H](O)C=C[C@@H](O)[C@@]4(O)C3)c(=O)oc2c1OC` [TRICHODERMAMIDE C], which IC50 [1] is on record?
Its IC50 is 4.28 µg/mL (≈ 9.59 µM).

And the IC50 [2]?
Its IC50 is 0.68 µg/mL (≈ 1.52 µM).
